This is an account of results in ChEMBL document CHEMBL1143690, “The effects of N-terminal part modification of arginine vasopressin analogues with 2-aminoindane-2-carboxylic acid: a highly potent V2 agonist” (J Med Chem, 2007).

Molecules are shown by their SMILES. Activity calls are given as the source filed them. No cut-off for these calls is given here. Positions of bridges follow the written chain, without caps; N, C: chain ends. Non-standard residues stand in square brackets, D forms with d. Residues, ends and D or L forms follow the SMILES beside them. Aic = NC1(C(=O)O)Cc2ccccc2C1

In experiment [1] the test system is Rattus norvegicus. In words: Antidiuretic activity in sc dosed conscious Wistar rat in an antidiuresis time of t1/2 60 mins relative to AVP. The experiment is classed as functional, Urine.
For experiment [2], the species on record is Rattus norvegicus. In words: Effect on arterial blood pressure in Wistar rat in pressor test. Type of experiment: functional, organism-based. The settings on record: for Kb: Rattus norvegicus, Wistar, Arterial blood, read-out: pA2 (converted).
The subject of experiment [3] is Rattus norvegicus. The experiment is described as follows: Antidiuretic activity in sc dosed conscious Wistar rat in an antidiuresis time of t1/2 200 mins relative to AVP. The experiment is classed as functional, Urine.
Experiment [4] relates to Rattus norvegicus. In words: Antidiuretic activity in sc dosed conscious Wistar rat in an antidiuresis time of t1/2 60 mins relative to dDAVP. Type of experiment: functional, Urine.
The test system of experiment [5] is Rattus norvegicus. In words: Antidiuretic activity in sc dosed conscious Wistar rat in an antidiuresis time of t1/2 200 mins relative to dDAVP. The experiment is classed as functional, Urine.
Experiment [6] is filed under the species Rattus norvegicus. The experiment is described as follows: In vitro uterotonic activity in Wistar rat oxytocic uterus in absence of Mg2+. The note with it: for Kb: read-out: pA2 (converted). The experiment is classed as functional.

Turning to `NC(=O)CC[C@@H]1NC(=O)[C@H](Cc2ccccc2)NC(=O)C2(Cc3ccccc3C2)NC(=O)[C@@H](N)CSSC[C@@H](C(=O)N2CCC[C@H]2C(=O)N[C@@H](CCCN=C(N)N)C(=O)NCC(N)=O)NC(=O)[C@H](CC(N)=O)NC1=O` [listing 1 of 2 here], the Activity with Rattus norvegicus [1] was 450 IU/mg; in the experiment listed under Rattus norvegicus [2], 9.4 IU/mg; with Rattus norvegicus [3], 45000 IU/mg; in the experiment on Rattus norvegicus [4], 10%; with Rattus norvegicus [5] it was 10%.

Regarding `NC(=O)CC[C@@H]1NC(=O)[C@H](Cc2ccccc2)NC(=O)C2(Cc3ccccc3C2)NC(=O)[C@@H](N)CSSC[C@@H](C(=O)N2CCC[C@H]2C(=O)N[C@H](CCCN=C(N)N)C(=O)NCC(N)=O)NC(=O)[C@H](CC(N)=O)NC1=O` [listing 1 of 2 here], the Kb in the experiment filed under Rattus norvegicus [6] is 138 nM.

For the compound `NC(=O)CC[C@@H]1NC(=O)[C@H](Cc2ccccc2)NC(=O)C2(Cc3ccccc3C2)NC(=O)CCSSC[C@@H](C(=O)N2CCC[C@H]2C(=O)N[C@H](CCCN=C(N)N)C(=O)NCC(N)=O)NC(=O)[C@H](CC(N)=O)NC1=O` [listing 1 of 2 here], the Kb is 2510 nM in the experiment listed under Rattus norvegicus [2] and 49 nM in the experiment filed under Rattus norvegicus [6].

For `NC(=O)CC[C@@H]1NC(=O)C2(Cc3ccccc3C2)NC(=O)[C@H](Cc2ccc(O)cc2)NC(=O)[C@H](N)CSSC[C@H](C(=O)N2CCC[C@H]2C(=O)N[C@@H](CCCN=C(N)N)C(=O)NCC(N)=O)NC(=O)[C@H](CC(N)=O)NC1=O`, the result in the experiment with Rattus norvegicus [1] (Urine), in the experiment listed under Rattus norvegicus [2], in the experiment with Rattus norvegicus [3] (Urine), with Rattus norvegicus [4] (Urine), in the experiment listed under Rattus norvegicus [6] and with Rattus norvegicus [5] (Urine) was inactive.

As for `NC(=O)CC[C@@H]1NC(=O)[C@H](Cc2ccccc2)NC(=O)C2(Cc3ccccc3C2)NC(=O)[C@@H](N)CSSC[C@@H](C(=O)N2CCC[C@H]2C(=O)N[C@@H](CCCN=C(N)N)C(=O)NCC(N)=O)NC(=O)[C@H](CC(N)=O)NC1=O` [listing 2 of 2 here], the Kb in the experiment listed under Rattus norvegicus [6] is 53.7 nM.

As for `CC(C)[C@@H]1NC(=O)[C@H](Cc2ccccc2)NC(=O)C2(Cc3ccccc3C2)NC(=O)CCSSC[C@@H](C(=O)N2CCC[C@H]2C(=O)N[C@H](CCCN=C(N)N)C(=O)NCC(N)=O)NC(=O)[C@H](CC(N)=O)NC1=O` [listing 1 of 2 here], the Activity with Rattus norvegicus [1] was 4500 IU/mg; in the experiment on Rattus norvegicus [3], 450000 IU/mg; with Rattus norvegicus [4], 50%; with Rattus norvegicus [5] it was 100%.

Turning to `NC(=O)CC[C@@H]1NC(=O)[C@H](Cc2ccccc2)NC(=O)C2(Cc3ccccc3C2)NC(=O)[C@@H](N)CSSC[C@@H](C(=O)N2CCC[C@H]2C(=O)N[C@H](CCCN=C(N)N)C(=O)NCC(N)=O)NC(=O)[C@H](CC(N)=O)NC1=O` [listing 2 of 2 here], the Activity in the experiment on Rattus norvegicus [1] was found to be 45 IU/mg; in the experiment listed under Rattus norvegicus [2], 0 IU/mg; in the experiment on Rattus norvegicus [3], 4500 IU/mg; in the experiment on Rattus norvegicus [4] it was 1%; in the experiment on Rattus norvegicus [5], 1%.

Consider `CC(C)[C@@H]1NC(=O)[C@H](Cc2ccccc2)NC(=O)C2(Cc3ccccc3C2)NC(=O)CCSSC[C@@H](C(=O)N2CCC[C@H]2C(=O)N[C@H](CCCN=C(N)N)C(=O)NCC(N)=O)NC(=O)[C@H](CC(N)=O)NC1=O` [listing 2 of 2 here], for which the Kb in the experiment filed under Rattus norvegicus [2] was 562 nM; in the experiment listed under Rattus norvegicus [6], 8.71 nM.

For `CC(C)[C@@H]1NC(=O)[C@H](Cc2ccccc2)NC(=O)C2(CCCCC2)NC(=O)CCSSC[C@@H](C(=O)N2CCC[C@H]2C(=O)N[C@H](CCCN=C(N)N)C(=O)NCC(N)=O)NC(=O)[C@H](CC(N)=O)NC1=O`, the Activity turned out to be 4500 IU/mg in the experiment on Rattus norvegicus [1], 50000 IU/mg in the experiment on Rattus norvegicus [3], 50% with Rattus norvegicus [4] and 10% with Rattus norvegicus [5]. The Kb in the experiment filed under Rattus norvegicus [2] was 724 nM; in the experiment listed under Rattus norvegicus [6], 15.5 nM.

Regarding `NC(=O)CC[C@@H]1NC(=O)C2(Cc3ccccc3C2)NC(=O)[C@H](Cc2ccc(O)cc2)NC(=O)CCSSC[C@H](C(=O)N2CCC[C@H]2C(=O)N[C@@H](CCCN=C(N)N)C(=O)NCC(N)=O)NC(=O)[C@H](CC(N)=O)NC1=O`, the result with Rattus norvegicus [1] (Urine), in the experiment filed under Rattus norvegicus [2], in the experiment on Rattus norvegicus [3] (Urine), with Rattus norvegicus [4] (Urine), in the experiment filed under Rattus norvegicus [6] and in the experiment with Rattus norvegicus [5] (Urine) was inactive.

`NC(=O)CC[C@@H]1NC(=O)[C@H](Cc2ccccc2)NC(=O)C2(Cc3ccccc3C2)NC(=O)CCSSC[C@@H](C(=O)N2CCC[C@H]2C(=O)N[C@@H](CCCN=C(N)N)C(=O)NCC(N)=O)NC(=O)[C@H](CC(N)=O)NC1=O` [listing 1 of 2 here]: the Activity is recorded as 450 IU/mg with Rattus norvegicus [1]; 5.3 IU/mg in the experiment filed under Rattus norvegicus [2]; 45000 IU/mg with Rattus norvegicus [3]; 10% in the experiment on Rattus norvegicus [4]; 10% in the experiment on Rattus norvegicus [5].

Regarding `NC(=O)CC[C@@H]1NC(=O)C2(Cc3ccccc3C2)NC(=O)[C@H](Cc2ccc(O)cc2)NC(=O)[C@H](N)CSSC[C@H](C(=O)N2CCC[C@H]2C(=O)N[C@H](CCCN=C(N)N)C(=O)NCC(N)=O)NC(=O)[C@H](CC(N)=O)NC1=O`, the outcome in the experiment with Rattus norvegicus [1] (Urine), in the experiment filed under Rattus norvegicus [2], in the experiment with Rattus norvegicus [3] (Urine), in the experiment on Rattus norvegicus [4] (Urine), in the experiment filed under Rattus norvegicus [6] and in the experiment on Rattus norvegicus [5] (Urine) was inactive.

On to `NC(=O)CC[C@@H]1NC(=O)[C@H](Cc2ccccc2)NC(=O)C2(Cc3ccccc3C2)NC(=O)CCSSC[C@@H](C(=O)N2CCC[C@H]2C(=O)N[C@H](CCCN=C(N)N)C(=O)NCC(N)=O)NC(=O)[C@H](CC(N)=O)NC1=O` [listing 2 of 2 here], for which the Activity came out at 450 IU/mg with Rattus norvegicus [1], 45000 IU/mg in the experiment on Rattus norvegicus [3], 10% in the experiment on Rattus norvegicus [4] and 10% with Rattus norvegicus [5].

As for `NC(=O)CC[C@@H]1NC(=O)[C@H](Cc2ccccc2)NC(=O)C2(Cc3ccccc3C2)NC(=O)CCSSC[C@@H](C(=O)N2CCC[C@H]2C(=O)N[C@@H](CCCN=C(N)N)C(=O)NCC(N)=O)NC(=O)[C@H](CC(N)=O)NC1=O` [listing 2 of 2 here], in the experiment listed under Rattus norvegicus [6], the Kb was 31.6 nM.

Turning to `CC(C)[C@@H]1NC(=O)[C@H](Cc2ccccc2)NC(=O)C2(Cc3ccccc3C2)NC(=O)[C@@H](N)CSSC[C@@H](C(=O)N2CCC[C@H]2C(=O)N[C@@H](CCCN=C(N)N)C(=O)NCC(N)=O)NC(=O)[C@H](CC(N)=O)NC1=O` (H-C[Aic]FVNCPRG-NH2; disulfide 1-6) [listing 1 of 2 here], the Kb in the experiment filed under Rattus norvegicus [6] is 11.7 nM.

With `CC(C)[C@@H]1NC(=O)[C@H](Cc2ccccc2)NC(=O)C2(Cc3ccccc3C2)NC(=O)[C@@H](N)CSSC[C@@H](C(=O)N2CCC[C@H]2C(=O)N[C@@H](CCCN=C(N)N)C(=O)NCC(N)=O)NC(=O)[C@H](CC(N)=O)NC1=O` (H-C[Aic]FVNCPRG-NH2; disulfide 1-6) [listing 2 of 2 here], the Activity stood at 450 IU/mg with Rattus norvegicus [1]; 0 IU/mg in the experiment listed under Rattus norvegicus [2]; 45000 IU/mg with Rattus norvegicus [3]; 10% with Rattus norvegicus [4]; 10% in the experiment on Rattus norvegicus [5].
